Here are results for 78 compounds from PMC12040169 (PLOS Biology, 2025).

The structures appear in SMILES notation.

A short description of the data set: in vitro. As to conditions: human, hela cells, % viability.
As for `CC(C)CNC(=O)C(=O)NCCc1ccc(F)cc1` [CBK264903], the viability (in general, a read-out of living cells in per cent, often relative to untreated cells) at 28.5 h, 10 µM worked out at 105%.

With `CC(=O)Nc1ccc(/C(C)=N\NC(=O)CCN2CCCCC2)cc1` [CBK263509], the viability at 28.5 h, 10 µM worked out at 95.9%.

Consider `NS(=O)(=O)c1ccc(NC(=O)c2ccc3ccccc3c2)cc1` [CBK264338], for which the viability at 28.5 h, 10 µM was determined as 112%.

Consider `COc1ccccc1N(CC(O)Cn1nc(C)cc1C)S(=O)(=O)c1ccccc1` (stereo not drawn) [CBK264546], for which the viability at 28.5 h, 10 µM amounted to 100%.

`Cc1ccc2[nH]cc(CCN3CCC4(C3)OCCc3c4[nH]c4ccccc34)c2c1` (stereo not drawn) [CBK061790]: the viability at 28.5 h, 10 µM was found to be 84.7%.

Take `FC(F)(F)c1nnc2ccc(-n3ccnc3)nn12` [CBK020041]: the viability at 28.5 h, 10 µM came out at 96.1%.

On to `COCC(=O)N1CCN(Cc2cccc(-c3ccccn3)c2)CC1` [CBK304035], for which the viability at 28.5 h, 10 µM worked out at 91.3%.

Regarding `Cc1nn(C)c(Oc2ccccc2OCc2ccccc2)c1[N+](=O)[O-]` [CBK000281], the viability at 28.5 h, 10 µM is 102%.

Consider `O=C(CSC1=NCCS1)Nc1ccc(Cl)cn1` [CBK057917], for which the viability at 28.5 h, 10 µM is 84%.

As for `CC(C)N1C[C@@H](C(=O)NC(C)(C)C)[C@@]2(Cc3ccccc3C(=O)N2)C1` [CBK285295], the viability at 28.5 h, 10 µM turned out to be 101%.

Consider `COc1ccc(CCC(C)NC2CCCc3c2[nH]c2ccc([N+](=O)[O-])cc32)cc1` (stereo not drawn) [CBK262876], for which the viability at 28.5 h, 10 µM turned out to be 71.6%.

Take `CCNS(=O)(=O)c1ccc2c(c1)N(Cc1ccc(CO)o1)CC2` [CBK306158]: the viability at 28.5 h, 10 µM amounted to 83.8%.

As for `CN(C)C(=O)Cn1nc(-c2cc3c(s2)CCC3)oc1=O` [CBK284715], the viability at 28.5 h, 10 µM came out at 99%.

In the case of `CSc1nc(-c2ccccc2)nc(N)c1C(C)=O` [CBK270762], the viability at 28.5 h, 10 µM came out at 90.1%.

On to `CCS(=O)(=O)N1CCN(C(=O)c2ccc3nc(C)c(N(CCOC)Cc4ccc(OC)cc4)n3c2)CC1` [CBK146153], for which the viability at 28.5 h, 10 µM was 98.2%.

Take `CN(C)C(=O)CN1C(=O)CC2(C1=O)C(=O)N(CC(=O)O)c1ccc(F)cc12` (stereo not drawn) [CBK076119]: the viability at 28.5 h, 10 µM was determined as 101%.

In the case of `Cc1[nH]c2ccccc2c1C(=O)N1CCC(CC(=O)N2CCN(c3ccccc3)CC2)CC1` [CBK286033], the viability at 28.5 h, 10 µM was 96.6%.

`Cc1cc(=O)[nH]c(-n2nc(C)cc2NC(=O)c2ccccc2C)n1` [CBK287654]: the viability at 28.5 h, 10 µM stood at 92.5%.

Regarding `O=C(Nc1cccnc1)N1CCN(Cc2ccccc2)CC1` [CBK155663], the viability at 28.5 h, 10 µM amounted to 87.7%.

Turning to `Nc1ncc(-c2cccc(CO)c2)nc1NC1CCCCC1` [CBK063650], the viability at 28.5 h, 10 µM was determined as 101%.

Take `Cc1nc2c(c(C)c1CC(=O)NCc1cccc(C#N)c1)c(=O)[nH]n2C` [CBK304959]: the viability at 28.5 h, 10 µM stood at 92.4%.

On to `Cc1[nH]c2c(C(=O)O)cccc2c1-c1ccccc1` [CBK012486], for which the viability at 28.5 h, 10 µM stood at 103%.

As for `OCc1ccc(OCCCOc2cccc3cccnc23)cc1` [CBK269674], the viability at 28.5 h, 10 µM turned out to be 85.8%.

On to `Cn1cc(CN2CCCN(C(=O)c3cc4ccccc4[nH]3)CC2)cn1` [CBK304920], for which the viability at 28.5 h, 10 µM came out at 96%.

On to `O=c1[nH]c2ncc(-c3cccc(-c4ccccc4)c3)nc2n1Cc1ccccc1` [CBK064252], for which the viability at 28.5 h, 10 µM came out at 96.1%.

Regarding `Cc1ccc(C(=O)c2cccc(N3C(=O)c4ccc(C(=O)O)cc4C3=O)c2)cc1C` [CBK286994], the viability at 28.5 h, 10 µM was found to be 110%.

Take `Cc1cccc(CCN2CCC3(CC2)NCCc2c3[nH]c3ccc(Br)cc23)c1` [CBK039280]: the viability at 28.5 h, 10 µM came to 83.3%.

As to `CS(=O)(=O)Nc1ccc(C2=NN(S(C)(=O)=O)C(c3ccc4nccnc4c3)C2)cc1` (stereo not drawn) [CBK267546], the viability at 28.5 h, 10 µM turned out to be 83.1%.

On to `CN(Cc1cccc2ncccc12)C(=O)c1cc(C2CC2)nn1C` [CBK282537], for which the viability at 28.5 h, 10 µM stood at 108%.

Consider `Cc1ccccc1CSc1nc2ccc([N+](=O)[O-])cc2[nH]1` [CBK267879], for which the viability at 28.5 h, 10 µM came to 96.2%.

Take `Cc1cc(NC(=O)Nc2cccc(Cl)c2C)no1` [CBK288245]: the viability at 28.5 h, 10 µM was determined as 87.3%.

In the case of `O=C1CN(Cc2ccc(Cl)cc2)CCO1` [CBK023036C], the viability at 28.5 h, 10 µM stood at 88.7%.

With `N/C(=N\OCC(=O)Nc1cccc([N+](=O)[O-])c1)c1nonc1N` [CBK262044], the viability at 28.5 h, 10 µM amounted to 90%.

On to `Cc1csc(C(Cc2ccsc2)NC(=O)c2ccc(=O)[nH]c2)n1` (stereo not drawn) [CBK285109], for which the viability at 28.5 h, 10 µM came to 95.2%.

`O=C(c1cc(C2CC2)on1)N1CCn2cc(C(F)(F)F)nc2C1` [CBK282425]: the viability at 28.5 h, 10 µM worked out at 85.4%.

As for `COc1ccccc1N(CC(O)CN1C(=O)NC(C)(C)C1=O)S(=O)(=O)c1ccc(C)cc1` (stereo not drawn) [CBK263581], the viability at 28.5 h, 10 µM came to 99.4%.

In the case of `Cc1cc(C)nc(Nc2n[nH]c(-c3ccc(NC(=O)Nc4ccccc4)cc3)n2)n1` [CBK267076], the viability at 28.5 h, 10 µM stood at 92.7%.

As to `O=C(CSc1nnc(-c2ccco2)[nH]1)Nc1cccc(Cl)c1` [CBK293990], the viability at 28.5 h, 10 µM was 96.7%.

Consider `CCOc1ccc(N2C(=O)CC(Nc3cc(C(=O)O)ccc3C)C2=O)cc1` (stereo not drawn) [CBK296651], for which the viability at 28.5 h, 10 µM was 97.1%.

For the compound `Cc1ccc(-c2nc3ncccc3o2)cc1NC(=O)c1cccnc1` [CBK268774], the viability at 28.5 h, 10 µM turned out to be 100%.

Consider `COCCn1c(CN2CCC(Cc3ccccc3)CC2)nc2c1c(=O)n(C)c(=O)n2C` [CBK269378], for which the viability at 28.5 h, 10 µM is 99.1%.

As to `c1cn2cc(-c3ccoc3)nc(NC3CC3)c2n1` [CBK066720], the viability at 28.5 h, 10 µM amounted to 102%.

With `Cn1c(=O)c2c(ncn2CC(=O)Nc2ccccc2I)n(C)c1=O` [CBK133275], the viability at 28.5 h, 10 µM was determined as 95.6%.

With `CC(=O)Oc1cc2c(c(OC(C)=O)n1)C(C)NC2=O` (stereo not drawn) [CBK012390], the viability at 28.5 h, 10 µM worked out at 94.9%.

Take `Cc1ccc(S(=O)(=O)Cc2noc([C@@H]3C[C@@H](O)CN3CC3CCCCC3)n2)cc1` [CBK288841]: the viability at 28.5 h, 10 µM turned out to be 115%.

Consider `COc1ccc(NC(=O)CSc2nnc(-c3ccncc3)n2-c2ccc(C)cc2)cc1Cl` [CBK266187], for which the viability at 28.5 h, 10 µM was 98.3%.

For `COc1ccc(COC(=O)C2CC(=O)N(Cc3ccc(C)cc3)C2)cc1` (stereo not drawn) [CBK296624], the viability at 28.5 h, 10 µM is 89%.

With `O=C(O)CCCNS(=O)(=O)c1ccc([N+](=O)[O-])cc1` [CBK261317], the viability at 28.5 h, 10 µM came out at 93.1%.

For `COc1ccc(N2CCN(Cc3nc4c(c(=O)n(C)c(=O)n4C)n3Cc3cccc(C)c3)CC2)cc1` [CBK269552], the viability at 28.5 h, 10 µM stood at 78.4%.

Regarding `Cc1cccnc1CN1CCC2(CCc3ccccc3C(=O)N2)C1` (stereo not drawn) [CBK284611], the viability at 28.5 h, 10 µM was found to be 96.4%.

As to `O=C(C1CC1)N1CCc2cc(-c3cn4ccccc4n3)ccc21` [CBK285193], the viability at 28.5 h, 10 µM came to 99.2%.

For the compound `Cc1cc(N)n(-c2nc3c(cnn3-c3ccc(C)c(C)c3)c(=O)[nH]2)n1` [CBK287646], the viability at 28.5 h, 10 µM is 97.8%.

As for `Cc1ccc(S(=O)(=O)NC(=O)NCCCCNC(=O)NS(=O)(=O)c2ccc(C)cc2)cc1` [CBK296078], the viability at 28.5 h, 10 µM is 102%.

Take `CC(C)(Oc1ccc(Br)cc1)C(=O)NCCOc1ccccc1` [CBK268287]: the viability at 28.5 h, 10 µM was 114%.

With `CC(=O)Nc1ccc(S(=O)(=O)NCCCc2ccccc2)cc1` [CBK265488], the viability at 28.5 h, 10 µM stood at 89.8%.

Regarding `FC(F)(F)c1cccc(-c2nccnc2NCCCN2CCOCC2)c1` [CBK037288], the viability at 28.5 h, 10 µM worked out at 97.6%.

Regarding `O=C1c2ccccc2C(=O)c2c1cccc2S(=O)(=O)N1CCN(C(=O)C2CCCO2)CC1` (stereo not drawn) [CBK200038], the viability at 28.5 h, 10 µM was found to be 40.5%.

On to `COC(=O)CCc1ccc(S(=O)(=O)N2CCCN(Cc3cccc(Br)c3)CC2)cc1` [CBK062981], for which the viability at 28.5 h, 10 µM was 102%.

On to `CN(C)c1ccc(-c2nnnn2[C@H]2CO[C@H]3[C@@H]2OC[C@H]3O)cc1` [CBK289481], for which the viability at 28.5 h, 10 µM was determined as 76.7%.

In the case of `CCC(CNC(=O)c1cccc(C)n1)N1CCCC1` (stereo not drawn) [CBK304803], the viability at 28.5 h, 10 µM is 116%.

As to `O=C(Nc1ccc(Cl)cc1C(=O)NCCN1CCOCC1)c1ccc(Cl)cc1Cl` [CBK265749], the viability at 28.5 h, 10 µM amounted to 105%.

As to `CC1CN(Cc2nc3c(c(=O)[nH]c(=O)n3C)n2CCc2ccccc2)CC(C)O1` (stereo not drawn) [CBK269876], the viability at 28.5 h, 10 µM turned out to be 98.1%.

Regarding `O=C(CCn1ccc2ccc(F)cc21)NC[C@H]1CC[C@H](C(=O)O)CC1` [CBK286666], the viability at 28.5 h, 10 µM was determined as 86.2%.

As for `COc1cccc(OCCO)c1` [CBK000514], the viability at 28.5 h, 10 µM turned out to be 93.1%.

Regarding `CC(C)CNc1nc2c(c(=O)n(Cc3ccccc3)c(=O)n2C)n1Cc1ccccc1` [CBK293946], the viability at 28.5 h, 10 µM is 81.7%.

`COc1ccc(Nc2cc(-c3ccco3)ncn2)cc1OC` [CBK090822]: the viability at 28.5 h, 10 µM was found to be 99.5%.

Take `c1ccc2oc(NC3=NCN(Cc4ccc5c(c4)OCO5)CN3)nc2c1` [CBK267964]: the viability at 28.5 h, 10 µM was 95.1%.

In the case of `CCOC(=O)N1CCC(NC(=O)c2ccc(Nc3cncc(-c4ccc(O)cc4)n3)cc2)CC1` [CBK115694], the viability at 28.5 h, 10 µM is 107%.

On to `Cc1cc(-c2ccccc2)nc(SCC(=O)Nc2nnc(C)s2)n1` [CBK058194], for which the viability at 28.5 h, 10 µM is 87.3%.

Turning to `O=C(Nc1cc(-c2nc3ncccc3o2)ccc1Cl)c1cccnc1` [CBK269700], the viability at 28.5 h, 10 µM was found to be 90.8%.

Take `COc1ccccc1-c1ccc(CC2(C(=O)NCCc3ccc(F)cc3)CCOCC2)cc1` [CBK286520]: the viability at 28.5 h, 10 µM was determined as 94.4%.

Consider `CC(=O)N1CCC2(C/C=C/C[C@H]3CN(CC(N)=O)CC[C@H]3NC(=O)CNC2=O)CC1` [CBK292148], for which the viability at 28.5 h, 10 µM was found to be 97.6%.

As for `CN(C)CCNC(=O)c1cccc(-c2cnc3[nH]c(=O)n(Cc4ccc(S(C)(=O)=O)cc4)c3n2)c1` [CBK065069], the viability at 28.5 h, 10 µM is 109%.

With `CC1=NN(c2ccc([N+](=O)[O-])cc2)C(=O)/C1=C\NCCN1CCN(C(=O)c2ccc(Br)cc2)CC1` [CBK261788], the viability at 28.5 h, 10 µM is 110%.

As for `O=C(c1cccnc1)N1CCN(c2ncccn2)CC1` [CBK144516], the viability at 28.5 h, 10 µM was 95.4%.

For `Cc1c(Cl)cc(C(C)C)c(O)c1CNC(=O)CSc1nnc(-c2cccs2)n1C` [CBK267416], the viability at 28.5 h, 10 µM turned out to be 94.6%.

`Cc1nc(C)n(CC2CCCCN2Cc2cn3ccccc3n2)n1` (stereo not drawn) [CBK304008]: the viability at 28.5 h, 10 µM worked out at 111%.

Consider `O=C(C1=C(O)C(=O)N(CCCn2ccnc2)C1c1cccc([N+](=O)[O-])c1)c1cccs1` (stereo not drawn) [CBK264591], for which the viability at 28.5 h, 10 µM turned out to be 95.9%.
